What follows are compounds tested against T1, CCR5 (Homo sapiens, UniProt P51681) (assay: CCR5 in vitro test: intracellular calcium signal detected by FLIPR). Conditions: HEK293 cells expressing CCR5, agonist RANTES at EC80, calcium signal.
T1 construct: expressed in transfected cells; host or cells: HEK293, clone C13, passage P4
T1 sequence (P51681 whole entry, species assumed): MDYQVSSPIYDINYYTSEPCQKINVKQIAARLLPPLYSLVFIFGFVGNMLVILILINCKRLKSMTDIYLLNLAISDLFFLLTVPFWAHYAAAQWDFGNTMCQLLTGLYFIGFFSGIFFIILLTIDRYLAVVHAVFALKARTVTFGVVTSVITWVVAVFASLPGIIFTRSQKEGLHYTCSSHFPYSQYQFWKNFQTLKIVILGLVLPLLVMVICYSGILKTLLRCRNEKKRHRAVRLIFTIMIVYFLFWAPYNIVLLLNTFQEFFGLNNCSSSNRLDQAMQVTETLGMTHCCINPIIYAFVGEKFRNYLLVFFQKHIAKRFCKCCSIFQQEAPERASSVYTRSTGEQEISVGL
Type: cell-based
Experimental: (§1) Experimental Example 1: CCR2/CCR5 In Vitro Test
(§2) The intracellular calcium signal was detected by FLIPR, and the IC50 value of the compound was used as an index to evaluate the inhibitory effect of the compound on CCR2 and CCR5 receptors.
(§3) 1. Cell line: The cells were inoculated and incubated in a 5% CO2 incubator at 37° C. overnight.
(§4) CCR2/CCR5 density: 1 M (20 k/well)
(§5) 2. Reagents: Fluo-4 Direct, (Invitrogen, Cat #F10471)
(§6) The compound was dissolved in DMSO to prepare a 10 mM solution, and the compound solution was placed in a nitrogen box.
(§7) Agonist reference compounds:
(§8) Preparation of probenecid in FLIPR assay buffer: 1 mL of FLIPR assay buffer was added to […] of probenecid to prepare a 250 mM solution, which is prepared fresh daily.
(§9) 2× (8 μM) Fluo-4 Direct™ Loading Buffer (per 10 mL) • Thaw a bottle of Fluo-4 Direct™ crystal (F10471). • Add 10 mL of FLIPR assay buffer to the vial. • Add 0.2 mL of probenecid to each 10 mL of Fluo-Direct. The final concentration of the assay was 2.5 mM. • Rotate it and place for >5 minutes (in absence of light). • Prepare fresh daily.
(§10) MCP-1 was diluted in FLIPR assay buffer 1:2 into 10 points, starting at 0.5 uM (final 100 nM). RANTES was diluted in FLIPR assay buffer 1:3 into 10 points, starting at 0.5 uM (final 100 nM). 20 uL of serially diluted compound buffer was added to each well of the DRC plate according to the compound plate map.
(§11) Standard compound was diluted in DMSO 1:3 into 11 points, starting at 1 mM. Test compound was diluted in DMSO 1:3 into 11 points, starting at 2 mM. 250 nL of compound solution was transferred into a cell plate using Echo (Greiner #781946).
(§12) (c) Take the cell plate out of the incubator, and gently dispense 20 uL of 2× Fluo-4 Direct wash-free loading buffer into a 384-well cell culture plate using a pipette. The final cell plate is 40 μL in volume.
(§13) (d) Incubate for 50 minutes at 37° C. under 5% CO2, and for 10 minutes at room temperature.
(§14) (e) Take the cell plate out of the incubator, and place it in FLIPR. Place the composite plate and the tip box in FLIPR.
(§15) (f) For DRC plate: • 1) Run the program on FLIPRTETRA. • 2) Read the fluorescent signal. • 3) Transfer 10 μL of compound from the DRC plate to the cell plate. • 4) Read the fluorescent signal. • 5) Calculate the “maximum−minimum” from Read 90 to the maximum allowed. Use FLIPR to calculate the EC80 value of each cell line. • 6) Prepare 5×EC80 concentration of the agonist reference compound.
(§16) (g) For the composite plate (1-add): • 1) Run the program on FLIPRTETRA. • 2) Transfer 10 μl, of 5×EC80 concentration of the agonist reference compound from the composite plate to the cell plate. • 3) Read the fluorescent signal. • 4) Calculate the “maximum−minimum” from Read 90 to the maximum allowed.
(§17) (h) Analyze the data using Prism, and calculate the IC50 value of the compound.
Work on `CCCCOc1ccc(-c2ccc(OCCCF)c(/C=C/C(=O)Nc3ccc([S@@+]([O-])Cc4cncn4CCC)cc3)c2)cc1` [WX024] yielded an IC50 of 1.3 nM. `CCCCOc1ccc(-c2ccc(Cl)c(/C=C/C(=O)Nc3ccc([S@@+]([O-])Cc4cncn4CCC)cc3)c2)cc1` [WX025] showed an IC50 of 7.4 nM. `CCCCOc1ccc(-c2ccc(OCC(F)F)c(/C=C/C(=O)Nc3ccc([S@@+]([O-])Cc4cncn4CCC)cc3)c2)cc1` [WX026] showed an IC50 of 3.2 nM. `CCCCOc1ccc(-c2ccc(Cl)c(/C=C/C(=O)Nc3ccc([S+]([O-])Cc4cncn4CCCC)cc3)c2)cc1` (stereo not drawn) [WX027] showed an IC50 of 13.6 nM. `CCCCOCCOc1ccc(-c2cccc(/C=C/C(=O)Nc3ccc([S+]([O-])Cc4cncn4CCCC)cc3)c2)cc1` (stereo not drawn) [WX028] showed an IC50 of 15.5 nM. `CCCCOCCOc1ccc(-c2cccc(/C=C/C(=O)Nc3ccc([S+]([O-])Cc4cncn4CC(C)C)cc3)c2)cc1` (stereo not drawn) [WX029] gave an IC50 of 34.2 nM. For `CCCCOc1ccc(-c2ccc(Cl)c(/C=C/C(=O)Nc3ccc([S+]([O-])Cc4cncn4CC(C)C)cc3)c2)cc1` (stereo not drawn) [WX030], the IC50 was 15.9 nM. In the case of `CCCCOCCOc1ccc(-c2cccc(/C=C/C(=O)Nc3ccc(S(=O)(=O)Cc4cncn4CCC)cc3)c2)cc1` [WX031], the IC50 is reported as 95.9 nM. `CCCCOCCOc1ccc(-c2ccc(OCC)c(/C=C/C(=O)Nc3ccc([S@@+]([O-])Cc4cncn4CCC)cc3)c2)cc1` [WX032] was tested, and the IC50 was 8.1 nM. For `CCCCOCCOc1ccc(-c2ccc(OC(C)C)c(/C=C/C(=O)Nc3ccc([S@@+]([O-])Cc4cncn4CCC)cc3)c2)cc1` [WX033], the IC50 was 11.8 nM. `CCCCOCCOc1ccc(-c2ccc(OCC(C)C)c(/C=C/C(=O)Nc3ccc([S@@+]([O-])Cc4cncn4CCC)cc3)c2)cc1` [WX034] gave an IC50 of 10 nM. `CCCCOCCOc1ccc(-c2cc(/C=C/C(=O)Nc3ccc([S@@+]([O-])Cc4cncn4CCC)cc3)c(OC)c(OC)c2)cc1` [WX035] gave an IC50 of 16.1 nM. With `CCCCOCCOc1ccc(-c2ccc(OC)c(/C=C/C(=O)Nc3ccc([S@@+]([O-])Cc4cncn4CCC)cc3)c2)c(C)c1` [WX036] the IC50 was 13.3 nM. With `CCCn1cncc1C[S@+]([O-])c1ccc(NC(=O)/C=C/c2cccc(-c3ccc(N4CCCC4)cc3)c2)cc1` [WX037] the IC50 was 44.2 nM. In the case of `CCCCOCCOc1ccc(-c2ccc(OC)c(/C=C/C(=O)Nc3ccc([S+]([O-])Cc4c(C)ncn4CCC)cc3)c2)cc1` (stereo not drawn) [WX038], the IC50 is reported as 12.5 nM. `CCCCOCCOc1ccc(-c2ccc(OC)c(/C=C/C(=O)Nc3ccc([S@+]([O-])Cc4cncn4CC)cc3)c2)cc1` [WX039] was tested, and the IC50 was 760 nM. `CCCCOCCOc1ccc(-c2ccc(OC)c(/C=C/C(=O)Nc3ccc([S@@+]([O-])Cc4cncn4CC)cc3)c2)cc1` [WX040] showed an IC50 of 10.5 nM. `CCCCOCCOc1ccc(-c2ccc(C)c(/C=C/C(=O)Nc3ccc([S+]([O-])Cc4cncn4CC)cc3)c2)cc1` (stereo not drawn) [WX041] gave an IC50 of 21.4 nM. `CCCCOCCOc1ccc(-c2cc(C)c(OC)c(/C=C/C(=O)Nc3ccc([S@@+]([O-])Cc4cncn4CCC)cc3)c2)cc1` [WX042] was tested, and the IC50 was 4 nM. Compound `CCCCOCCOc1ccc(-c2cc(/C=C/C(=O)Nc3ccc([S@@+]([O-])Cc4cncn4CCC)cc3)c(OC)cc2Cl)cc1` [WX043] has an IC50 of 9.1 nM. `CCCCOCCOc1ccc(-c2ccc(C#N)c(/C=C/C(=O)Nc3ccc([S@@+]([O-])Cc4cncn4CCC)cc3)c2)cc1` [WX044] gave an IC50 of 16.1 nM. With `CCCCOCCOc1ccc(-c2ccc(OC)c(/C=C/C(=O)Nc3ccc([S+]([O-])Cc4c(C)ncn4CC)cc3)c2)cc1` (stereo not drawn) [WX045] the IC50 was 14.8 nM.

The compounds below were run against T2, CCR2 (Homo sapiens, UniProt P41597) (assay: CCR2 in vitro test: intracellular calcium signal detected by FLIPR). Conditions: HEK293 cells expressing CCR2, agonist MCP-1 at EC80, calcium signal.
T2 construct: expressed in transfected cells; host or cells: HEK293, clone C7, passage P6
T2 sequence (P41597 whole entry, species assumed): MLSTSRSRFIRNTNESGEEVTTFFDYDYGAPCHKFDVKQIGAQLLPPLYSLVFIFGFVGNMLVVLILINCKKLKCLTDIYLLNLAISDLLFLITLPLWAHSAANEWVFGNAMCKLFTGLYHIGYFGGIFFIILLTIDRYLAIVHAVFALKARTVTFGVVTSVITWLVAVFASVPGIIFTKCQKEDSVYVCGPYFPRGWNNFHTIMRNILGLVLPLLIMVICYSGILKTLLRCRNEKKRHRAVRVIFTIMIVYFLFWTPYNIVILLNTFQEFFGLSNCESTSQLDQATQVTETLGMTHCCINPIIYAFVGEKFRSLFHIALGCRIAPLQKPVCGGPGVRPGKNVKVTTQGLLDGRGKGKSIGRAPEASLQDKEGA
Type: cell-based
Experimental: as §1, §2, §3, §4, §5, §6, §7, §8, §9, §10, §11, §12, §13, §14, §15, §16, §17
`CCCCOc1ccc(-c2ccc(OCCCF)c(/C=C/C(=O)Nc3ccc([S@@+]([O-])Cc4cncn4CCC)cc3)c2)cc1` [WX024] gave an IC50 of 63.1 nM. With `CCCCOc1ccc(-c2ccc(Cl)c(/C=C/C(=O)Nc3ccc([S@@+]([O-])Cc4cncn4CCC)cc3)c2)cc1` [WX025] the IC50 was 127 nM. `CCCCOc1ccc(-c2ccc(OCC(F)F)c(/C=C/C(=O)Nc3ccc([S@@+]([O-])Cc4cncn4CCC)cc3)c2)cc1` [WX026] was tested, and the IC50 was 175 nM. In the case of `CCCCOc1ccc(-c2ccc(Cl)c(/C=C/C(=O)Nc3ccc([S+]([O-])Cc4cncn4CCCC)cc3)c2)cc1` (stereo not drawn) [WX027], the IC50 is reported as 207 nM. In the case of `CCCCOCCOc1ccc(-c2cccc(/C=C/C(=O)Nc3ccc([S+]([O-])Cc4cncn4CCCC)cc3)c2)cc1` (stereo not drawn) [WX028], the IC50 is reported as 86.4 nM. For `CCCCOCCOc1ccc(-c2cccc(/C=C/C(=O)Nc3ccc([S+]([O-])Cc4cncn4CC(C)C)cc3)c2)cc1` (stereo not drawn) [WX029], the IC50 was 167 nM. Work on `CCCCOc1ccc(-c2ccc(Cl)c(/C=C/C(=O)Nc3ccc([S+]([O-])Cc4cncn4CC(C)C)cc3)c2)cc1` (stereo not drawn) [WX030] yielded an IC50 of 300 nM. Work on `CCCCOCCOc1ccc(-c2cccc(/C=C/C(=O)Nc3ccc(S(=O)(=O)Cc4cncn4CCC)cc3)c2)cc1` [WX031] yielded an IC50 of 237 nM. In the case of `CCCCOCCOc1ccc(-c2ccc(OCC)c(/C=C/C(=O)Nc3ccc([S@@+]([O-])Cc4cncn4CCC)cc3)c2)cc1` [WX032], the IC50 is reported as 28.6 nM. `CCCCOCCOc1ccc(-c2ccc(OC(C)C)c(/C=C/C(=O)Nc3ccc([S@@+]([O-])Cc4cncn4CCC)cc3)c2)cc1` [WX033] showed an IC50 of 56.3 nM. Work on `CCCCOCCOc1ccc(-c2ccc(OCC(C)C)c(/C=C/C(=O)Nc3ccc([S@@+]([O-])Cc4cncn4CCC)cc3)c2)cc1` [WX034] yielded an IC50 of 30 nM. `CCCCOCCOc1ccc(-c2cc(/C=C/C(=O)Nc3ccc([S@@+]([O-])Cc4cncn4CCC)cc3)c(OC)c(OC)c2)cc1` [WX035] showed an IC50 of 215 nM. Work on `CCCCOCCOc1ccc(-c2ccc(OC)c(/C=C/C(=O)Nc3ccc([S@@+]([O-])Cc4cncn4CCC)cc3)c2)c(C)c1` [WX036] yielded an IC50 of 64.9 nM. In the case of `CCCn1cncc1C[S@+]([O-])c1ccc(NC(=O)/C=C/c2cccc(-c3ccc(N4CCCC4)cc3)c2)cc1` [WX037], the IC50 is reported as 62.2 nM. Compound `CCCCOCCOc1ccc(-c2ccc(OC)c(/C=C/C(=O)Nc3ccc([S+]([O-])Cc4c(C)ncn4CCC)cc3)c2)cc1` (stereo not drawn) [WX038] has an IC50 of 42.5 nM. Work on `CCCCOCCOc1ccc(-c2ccc(OC)c(/C=C/C(=O)Nc3ccc([S@+]([O-])Cc4cncn4CC)cc3)c2)cc1` [WX039] yielded an IC50 of 70.1 nM. `CCCCOCCOc1ccc(-c2ccc(OC)c(/C=C/C(=O)Nc3ccc([S@@+]([O-])Cc4cncn4CC)cc3)c2)cc1` [WX040] gave an IC50 of 11.3 nM. `CCCCOCCOc1ccc(-c2ccc(C)c(/C=C/C(=O)Nc3ccc([S+]([O-])Cc4cncn4CC)cc3)c2)cc1` (stereo not drawn) [WX041] gave an IC50 of 22.5 nM. Work on `CCCCOCCOc1ccc(-c2cc(C)c(OC)c(/C=C/C(=O)Nc3ccc([S@@+]([O-])Cc4cncn4CCC)cc3)c2)cc1` [WX042] yielded an IC50 of 52.8 nM. `CCCCOCCOc1ccc(-c2cc(/C=C/C(=O)Nc3ccc([S@@+]([O-])Cc4cncn4CCC)cc3)c(OC)cc2Cl)cc1` [WX043] was tested, and the IC50 was 250 nM. `CCCCOCCOc1ccc(-c2ccc(C#N)c(/C=C/C(=O)Nc3ccc([S@@+]([O-])Cc4cncn4CCC)cc3)c2)cc1` [WX044] showed an IC50 of 293 nM. Work on `CCCCOCCOc1ccc(-c2ccc(OC)c(/C=C/C(=O)Nc3ccc([S+]([O-])Cc4c(C)ncn4CC)cc3)c2)cc1` (stereo not drawn) [WX045] yielded an IC50 of 77.6 nM. For `CCCCOCCOc1ccc(-c2cc(F)c(OCC)c(/C=C/C(=O)Nc3ccc([S@+]([O-])Cc4c(C)ncn4CC)cc3)c2)cc1` [WX089], the IC50 was 15 nM.

Source: patent US11155523B2, “Biphenyl compound as CCR2/CCR5 receptor antagonist” (Medshine Discovery Inc., priority 2016, dated 2021)
